Data: US10336759B2, “Salts and processes of preparing a PI3K inhibitor” (Incyte Corporation, priority 2015, dated 2019)

What was measured:
Assay type in all cases: biochemical
PI3Kδ = PI3Kδ (Homo sapiens (Human), UniProt O00329); assay: PI3K Enzyme Assay (Example A2), PI3Kδ; details: assay of Example A2, 1000 μM ATP
Protocol: (§1) PI3K isoforms α, β, δ and γ are purchased from Millipore (Bedford, Mass.).
(§2) The kinase reactions are conducted in clear-bottom 96-well plate from Thermo Fisher Scientific in a final volume of 24 μL. Inhibitors are first diluted serially in DMSO and added to the plate wells before the addition of other reaction components. The final concentration of DMSO in the assay is 0.5%. […] The reaction mixture is prepared containing 50 μM PIP2, kinase and varying concentration of inhibitors. […] Reactions are incubated for 180 minutes and terminated by the addition of 100 μL of 1 M potassium phosphate pH 8.0, 30 mM EDTA quench buffer. A 100 μL aliquot of the reaction solution are then transferred to 96-well Millipore MultiScreen IP 0.45 μm PVDF filter plate (The filter plate is prewetted with 200 μL 100% ethanol, distilled water, and 1 M potassium phosphate pH 8.0, respectively). […] After drying by aspiration and blotting, the plate is air dried in an incubator at 37° C. overnight. Packard TopCount adapter (Millipore) is then attached to the plate followed with addition of 120 μL Microscint 20 scintillation cocktail (Perkin Elmer) in each well. After the plate sealing, the radioactivity of the product is determined by scintillation counting on Topcount (Perkin-Elmer). […]

PI3Kα = PI3Kα (Homo sapiens (Human), UniProt P42336); assay: PI3K Enzyme Assay (Example A2), PI3Kα; details: assay of Example A2, 1000 μM ATP
Protocol: as §1, §2

PI3Kβ = PI3Kβ (Homo sapiens (Human), UniProt P42338); assay: PI3K Enzyme Assay (Example A2), PI3Kβ; details: assay of Example A2, 1000 μM ATP
Chain of PI3Kβ (P42338 whole entry): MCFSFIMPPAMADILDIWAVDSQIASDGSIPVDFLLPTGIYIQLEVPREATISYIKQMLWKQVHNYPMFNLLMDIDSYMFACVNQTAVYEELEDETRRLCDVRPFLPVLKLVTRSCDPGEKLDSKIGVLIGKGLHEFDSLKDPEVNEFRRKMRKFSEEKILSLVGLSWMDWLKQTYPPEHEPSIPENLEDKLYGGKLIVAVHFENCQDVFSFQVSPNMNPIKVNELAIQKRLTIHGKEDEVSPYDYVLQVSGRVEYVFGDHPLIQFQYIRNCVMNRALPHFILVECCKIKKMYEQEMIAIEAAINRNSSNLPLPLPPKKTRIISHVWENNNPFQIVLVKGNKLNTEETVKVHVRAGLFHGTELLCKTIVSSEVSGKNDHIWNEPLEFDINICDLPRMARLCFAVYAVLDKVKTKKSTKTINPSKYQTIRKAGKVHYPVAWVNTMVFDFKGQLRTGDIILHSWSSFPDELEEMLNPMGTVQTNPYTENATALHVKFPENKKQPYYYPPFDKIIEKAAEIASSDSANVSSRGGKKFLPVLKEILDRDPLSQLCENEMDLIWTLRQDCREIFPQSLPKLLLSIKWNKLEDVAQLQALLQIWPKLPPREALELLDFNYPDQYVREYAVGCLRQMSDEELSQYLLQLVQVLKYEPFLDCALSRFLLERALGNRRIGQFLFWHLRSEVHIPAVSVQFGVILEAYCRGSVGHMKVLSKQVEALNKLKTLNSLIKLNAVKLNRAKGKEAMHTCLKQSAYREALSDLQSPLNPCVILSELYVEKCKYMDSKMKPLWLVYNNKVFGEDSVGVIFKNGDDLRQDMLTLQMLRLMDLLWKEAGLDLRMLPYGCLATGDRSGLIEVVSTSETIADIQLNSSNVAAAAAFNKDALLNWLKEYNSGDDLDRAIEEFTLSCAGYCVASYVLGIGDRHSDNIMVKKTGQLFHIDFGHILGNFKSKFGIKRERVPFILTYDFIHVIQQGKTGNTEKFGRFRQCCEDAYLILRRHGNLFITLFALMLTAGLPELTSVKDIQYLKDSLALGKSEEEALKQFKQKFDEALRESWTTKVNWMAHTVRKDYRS
Chain of PI3Kβ (P27986 whole entry partner): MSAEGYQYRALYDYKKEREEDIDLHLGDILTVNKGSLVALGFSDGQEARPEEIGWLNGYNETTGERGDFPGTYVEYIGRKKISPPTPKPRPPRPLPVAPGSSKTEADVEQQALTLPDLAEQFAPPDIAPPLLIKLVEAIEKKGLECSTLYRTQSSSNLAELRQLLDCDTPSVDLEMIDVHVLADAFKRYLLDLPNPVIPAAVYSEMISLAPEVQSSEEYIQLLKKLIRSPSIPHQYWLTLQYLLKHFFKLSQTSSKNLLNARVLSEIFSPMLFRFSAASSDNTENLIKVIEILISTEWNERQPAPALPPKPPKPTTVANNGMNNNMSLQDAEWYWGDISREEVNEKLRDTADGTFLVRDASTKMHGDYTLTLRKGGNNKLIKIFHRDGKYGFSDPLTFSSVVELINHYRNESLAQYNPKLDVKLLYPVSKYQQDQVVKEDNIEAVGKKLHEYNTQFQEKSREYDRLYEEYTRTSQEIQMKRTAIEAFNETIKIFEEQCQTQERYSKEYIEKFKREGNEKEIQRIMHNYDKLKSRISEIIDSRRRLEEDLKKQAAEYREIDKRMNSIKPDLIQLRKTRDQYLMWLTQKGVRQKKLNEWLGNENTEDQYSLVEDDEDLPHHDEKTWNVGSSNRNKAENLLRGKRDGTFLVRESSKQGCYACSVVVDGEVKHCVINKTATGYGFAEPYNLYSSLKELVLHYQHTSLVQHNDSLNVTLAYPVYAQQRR
Protocol: as §1, §2

PI3Kγ = PI3Kγ (Homo sapiens (Human), UniProt P48736); assay: PI3K Enzyme Assay (Example A2), PI3Kγ; details: assay of Example A2, 1000 μM ATP
Chain of PI3Kγ (P48736 whole entry): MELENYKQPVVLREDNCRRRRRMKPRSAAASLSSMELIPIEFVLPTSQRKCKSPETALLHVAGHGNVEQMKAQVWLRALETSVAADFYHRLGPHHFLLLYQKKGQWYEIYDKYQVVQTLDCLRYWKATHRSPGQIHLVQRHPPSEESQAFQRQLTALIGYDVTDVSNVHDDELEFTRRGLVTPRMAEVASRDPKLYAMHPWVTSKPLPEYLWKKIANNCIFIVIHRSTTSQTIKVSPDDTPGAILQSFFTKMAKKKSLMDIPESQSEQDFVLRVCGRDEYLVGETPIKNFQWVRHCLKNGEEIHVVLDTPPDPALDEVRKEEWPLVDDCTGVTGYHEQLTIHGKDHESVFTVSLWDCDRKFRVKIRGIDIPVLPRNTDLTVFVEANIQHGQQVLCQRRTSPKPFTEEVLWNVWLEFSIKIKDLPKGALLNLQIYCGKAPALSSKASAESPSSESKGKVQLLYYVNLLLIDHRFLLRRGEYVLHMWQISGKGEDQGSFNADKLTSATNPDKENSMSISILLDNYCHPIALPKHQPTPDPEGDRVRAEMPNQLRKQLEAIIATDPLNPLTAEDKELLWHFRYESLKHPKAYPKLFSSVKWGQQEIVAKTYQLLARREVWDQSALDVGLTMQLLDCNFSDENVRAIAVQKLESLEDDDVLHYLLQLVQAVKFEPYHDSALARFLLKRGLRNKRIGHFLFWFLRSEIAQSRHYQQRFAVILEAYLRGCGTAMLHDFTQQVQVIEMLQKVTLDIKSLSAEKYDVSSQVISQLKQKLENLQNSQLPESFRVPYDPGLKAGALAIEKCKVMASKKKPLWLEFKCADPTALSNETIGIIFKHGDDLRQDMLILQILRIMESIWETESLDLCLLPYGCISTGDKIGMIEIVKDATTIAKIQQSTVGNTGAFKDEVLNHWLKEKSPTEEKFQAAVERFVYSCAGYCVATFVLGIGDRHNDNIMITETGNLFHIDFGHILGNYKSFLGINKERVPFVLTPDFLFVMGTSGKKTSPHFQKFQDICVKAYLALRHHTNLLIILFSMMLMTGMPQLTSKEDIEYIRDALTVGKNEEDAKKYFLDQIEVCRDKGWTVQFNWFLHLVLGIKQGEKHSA
Protocol: as §1, §2

PI3Kδ (p110δ/p85α) = PI3Kδ (p110δ/p85α) (Homo sapiens (Human), UniProt O00329); assay: PI3Kδ Scintillation Proximity Assay (Example A3); details: assay of Example A3, 20 μM ATP, 20 μM PIP2
Chain of PI3Kδ (p110δ/p85α) (O00329 whole entry): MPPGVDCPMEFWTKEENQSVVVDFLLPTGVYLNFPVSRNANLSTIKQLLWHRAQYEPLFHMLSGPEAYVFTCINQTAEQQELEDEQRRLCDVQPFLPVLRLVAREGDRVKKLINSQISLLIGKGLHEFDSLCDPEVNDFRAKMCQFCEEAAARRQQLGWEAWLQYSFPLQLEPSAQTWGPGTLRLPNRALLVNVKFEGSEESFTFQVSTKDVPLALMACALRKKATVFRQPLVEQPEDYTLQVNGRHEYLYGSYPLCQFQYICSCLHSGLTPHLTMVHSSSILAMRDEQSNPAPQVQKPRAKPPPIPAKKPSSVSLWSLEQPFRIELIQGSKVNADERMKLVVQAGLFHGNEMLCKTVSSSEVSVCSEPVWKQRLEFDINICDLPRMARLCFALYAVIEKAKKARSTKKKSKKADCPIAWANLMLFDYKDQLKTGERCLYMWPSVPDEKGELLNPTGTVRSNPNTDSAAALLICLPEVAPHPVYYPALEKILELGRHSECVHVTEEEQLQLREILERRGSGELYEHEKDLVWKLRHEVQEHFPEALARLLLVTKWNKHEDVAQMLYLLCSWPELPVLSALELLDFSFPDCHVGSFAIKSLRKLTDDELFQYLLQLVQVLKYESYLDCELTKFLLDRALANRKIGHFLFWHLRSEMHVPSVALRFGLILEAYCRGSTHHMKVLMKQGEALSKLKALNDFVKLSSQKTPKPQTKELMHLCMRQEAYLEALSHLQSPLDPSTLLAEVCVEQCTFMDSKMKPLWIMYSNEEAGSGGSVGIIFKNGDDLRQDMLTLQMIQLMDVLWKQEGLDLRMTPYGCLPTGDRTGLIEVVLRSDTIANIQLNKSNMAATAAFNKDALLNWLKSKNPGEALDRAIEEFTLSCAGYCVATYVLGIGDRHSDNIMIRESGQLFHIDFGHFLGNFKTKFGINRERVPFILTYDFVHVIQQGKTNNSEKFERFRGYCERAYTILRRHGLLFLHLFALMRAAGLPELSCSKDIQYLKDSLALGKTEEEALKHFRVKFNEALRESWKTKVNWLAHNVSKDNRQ
Chain of PI3Kδ (p110δ/p85α) (P27986 whole entry partner): as the sequence (P27986 whole entry partner) above
Protocol: The kinase reaction was conducted in polystyrene 384-well matrix white plate from Thermo Fisher Scientific in a final volume of 25 μL. Inhibitors were first diluted serially in DMSO and added to the plate wells before the addition of other reaction components. The final concentration of DMSO in the assay was 0.5%. The PI3K assays were carried out at room temperature in 20 mM MOPS, pH 6.7, 10 mM MgCl2, 5 mM DTT and CHAPS 0.03%. […] IC50 determination was performed by fitting the curve of percent control activity versus the log of the inhibitor concentration using the GraphPad Prism 3.0 software.

Chain of PI3Kδ (O00329 whole entry, canonical isoform): as the sequence (O00329 whole entry) above
Chain of PI3Kδ (P27986 whole entry partner, canonical isoform): as the sequence (P27986 whole entry partner) above

SMILES	selectivity for PI3Kδ (PI3Kδ)	fold selectivity for PI3Kδ over PI3Kα (PI3Kα) [fold]	fold selectivity for PI3Kδ over PI3Kβ (PI3Kβ) [fold]	fold selectivity for PI3Kδ over PI3Kγ (PI3Kγ) [fold]	IC50 (PI3Kδ (p110δ/p85α)) [nM]
CCOc1c([C@H](C)n2nc(C)c3c(N)ncnc32)cc(Cl)c(F)c1[C@@H]1CNC(=O)C1.Cl [(R)-4-(3-((S)-1-(4-amino-3-methyl-1H-pyrazolo[3,4-d]pyrimidin-1-yl)ethyl)-5-chloro-2-ethoxy-6-fluorophenyl)pyrrolidin-2-one hydrochloride]	selective inhibitor for PI3Kδ	> 100	> 100	> 100	
CCOc1c([C@H](C)n2nc(C)c3c(N)ncnc32)cc(Cl)c(F)c1[C@@H]1CNC(=O)C1 [compound of Formula I, (R)-4-(3-((S)-1-(4-amino-3-methyl-1H-pyrazolo[3,4-d]pyrimidin-1-yl)ethyl)-5-chloro-2-ethoxy-6-fluorophenyl)pyrrolidin-2-one]					≤ 10
